“And” between values parts separate entries of the source, which are not always exact repeats. Equal values may be shown once. Blank lines part the entries; values can stand above or below the molecule they belong to. The source made the active and inactive calls.
Tests used:
[1] = viability loss in human Jurkat cells – cell-based, luminescence, cytotoxicity control for P. falciparum gametocyte viability project, dose response (AID 1117277); format: functional;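 also: potency reflects loss of cellular ATP meaning fewer viable cells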
[2] = viability inhibitors of stage V gametocytes – luminescence, dose response (AID 1117278); format: functional, cell-based;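 also: gametocytes exposed to compound for 24 hours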
[3] = growth inhibition of PfATP4-mutant resistant parasites – NITD609-resistant line, SYBR Green, dry powder, dose response (AID 1159571); format: functional, cell-based;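 also: parasites synchronized at ring stage by sorbitol before testing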
[4] = growth inhibition of yeast DHODH-expressing 3D7 parasites – SYBR Green, dry powder samples, dose response (AID 1159570); format: functional, cell-based;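 also: parasite growth measured after 72 hours of compound exposure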
[5] = Dd2 parasite growth inhibition in erythrocytes – SYBR Green, dry powder samples, set 9, dose response (AID 1159568); format: functional, cell-based
[6] = Dd2 malaria parasite growth inhibition potency – SYBR Green, dry powder samples, dose response (AID 1159566); format: functional, cell-based;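 also: potency for growth inhibition with lower SYBR green DNA signal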
[7] = Plasmodium falciparum Dd2 Sybr green parasite growth Measured in Cell-Based and Microorganism Combination System Using Plate Reader - 2153-01_Inhibitor_Dose_DryPowder_Activity_Set3.; format: functional
[8] = P. falciparum Dd2 growth inhibitors, dose response, SYBR Green, cherry-picked samples (AID 1159567); format: functional, cell-based
[9] = toxicity to human HepG2 hepatoma cells – cell-based, plate reader, dry powder samples, cytotoxicity control, dose response (AID 1159569); format: functional;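 also: inhibitor potency with signal falling toward the positive control level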
[10] = biological target: Sphingosine 1-phosphate receptor 2 (Homo sapiens, UniProt O95136); test: Dose Response Cell Based Assay for Agonists of the S1P2 Receptor. [Related pubchem assays: 729, 736, 843 ]; format: functional
[11] = general mammalian cell viability loss – inhibitor set, cherry-pick, set 2, cytotoxicity control for miR-122 modulator project, dose response (AID 720697); format: functional, cell-based
[12] = general mammalian cell viability loss – activator set, cherry-pick, cytotoxicity control for miR-122 modulator project, dose response (AID 720690); format: functional, cell-based;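 also: HEK293T human cells scored for general mammalian cytotoxicity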
[13] = OVCAR8 cell viability loss – plate reader, dry powder samples, PAX8 project, dose response (AID 743197); format: functional, cell-based; conditions: OVCAR-8
[14] = activation of miR-122 Renilla sensor silencing – cell-based, Huh7 psiCHECK-miR122, Renilla luciferase, cherry-picked, dose response (AID 651956); format: functional;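 also: huh7 hepatoma cells stably carrying a psiCHECK-2 miR-122 sensor plasmid; renilla luciferase signal reporting endogenous miR-122 activity after 48 h compound exposure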
[15] = lung carcinoma cell viability loss – CellTiter-Glo luminescence, dry powder, set 17, dose response (AID 1117284); format: functional, cell-based; conditions: A549
[16] = viability loss in A549 lung cells – cell-based, 24 h, CellTiter-Glo luminescence, cherry-picks, cytotoxicity control, dose response (AID 1053115); format: functional; conditions: A549, 24 h
Paired box protein Pax-8 = Paired box protein Pax-8 (Homo sapiens, UniProt Q06710); test: PAX8 transcriptional activity inhibition in RMG-I – RMG-I cells, luciferase, cherry-pick, dose response (AID 687027); format: functional, cell-based;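 also: luciferase reporter driven by Pax8 target thyroperoxidase promoter measured by SteadyGlo luminescence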
Genome polyprotein = Genome polyprotein (dengue virus type 2, UniProt P29990); test: flavivirus cap methylation enzyme inhibition – biochemical, confirmation dose response, primary screen (AID 588689); format: functional
[17] = Trypanosoma cruzi growth suppression in host cells – NIH3T3 host cells, beta-gal luminescence, confirmation (AID 2044); format: functional, cell-based;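 also: intracellular parasites grown in NIH/3T3 mouse fibroblasts as host cells; luminescent beta-galactosidase reporter signal from transgenic T. cruzi replicating inside host cells; inhibitors lower the luminescence signal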
Vero = test: viability of Vero cells under compound – cytotoxicity control for flavivirus capping enzyme inhibitors (AID 588742); format: functional; conditions: Chlorocebus sabaeus
[18] = viability loss in HeLa cells – cytotoxicity control for MgcRacGAP inhibitor project, dose response (AID 624300); format: functional
[19] = biological target: T1, Mannose-6-phosphate isomerase (Homo sapiens, UniProt P34949); test: MPI inhibition at elevated mannose 6-phosphate – biochemical, fluorescence intensity, high mannose 6-phosphate, primary screen (AID 1220)
T1 sequence (P34949 whole entry): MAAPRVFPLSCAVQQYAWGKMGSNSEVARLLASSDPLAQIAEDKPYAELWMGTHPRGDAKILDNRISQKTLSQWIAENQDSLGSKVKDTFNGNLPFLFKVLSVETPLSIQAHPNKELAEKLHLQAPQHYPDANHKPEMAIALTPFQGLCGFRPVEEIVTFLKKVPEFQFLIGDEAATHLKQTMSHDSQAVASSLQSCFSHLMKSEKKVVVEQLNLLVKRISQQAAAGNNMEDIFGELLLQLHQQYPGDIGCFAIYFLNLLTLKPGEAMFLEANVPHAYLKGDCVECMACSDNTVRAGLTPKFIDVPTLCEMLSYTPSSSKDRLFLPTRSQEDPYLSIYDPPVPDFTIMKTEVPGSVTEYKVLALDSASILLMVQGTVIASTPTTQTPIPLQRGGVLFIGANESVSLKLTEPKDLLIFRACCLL

[20] = biological target: Induced myeloid leukemia cell differentiation protein Mcl-1 (Homo sapiens, UniProt Q07820); test: Mcl-1 Noxa peptide disruption concentration-response – biochemical, TR-FRET, dose response (AID 1417); format: functional
[21] = biological target: T1, Mannose-6-phosphate isomerase; test: MPI enzyme activity inhibition – biochemical, fluorescence intensity, coupled assay, primary screen (AID 1209)
[22] = NIH3T3 cell viability loss – ATP luminescence, mouse fibroblasts, counter-screen, dose response (AID 2010); format: functional, cell-based;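 also: cells exposed to compound for about 90 hours before reading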
[23] = viability loss in HEK293 cells – cell-based, luminescence, dry powder, set 12, cytotoxicity control, dose response (AID 743354); format: functional
[24] = Potency on glucagon-like peptide 1 release, dose-response in NCI-H716 cell line, half maximal inhibitory concentration (AID 1117344); format: functional, cell-based
[25] = biological target: Eukaryotic translation initiation factor 4E (Mus musculus, UniProt P63073); test: blockers of eIF4G binding by eIF4E – biochemical, TR-FRET, dose response (AID 855); format: functional;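 also: potency for disrupting eIF4E binding to eIF4GI seen as loss of FRET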
[26] = SNU-C1 cell viability reduction, dose response, CellTiter-Glo luminescence (AID 1117323); format: functional, cell-based
Cytochrome P450 2C9 = Cytochrome P450 2C9 (Homo sapiens, UniProt P11712)
[27] = CellTiter-Glo luminescence survival assay, SW480 colon tumor line, concentration-response curve, half-maximal inhibitory concentration (AID 1117338); format: functional
[28] = rise of 2N DNA cells, HeLa – IC50, dose response (AID 1117349); format: functional, cell-based
[29] = RKO cell viability reduction, dose response, CellTiter-Glo luminescence (AID 1117322); format: functional
[30] = cytotoxicity toward Colo320 cells – cell-based, CellTiter-Glo luminescence, IC50, dose response (AID 1117334); format: functional; conditions: COLO 320
Cytochrome P450 1A2 = biological target: T2, Cytochrome P450 1A2 (Homo sapiens, UniProt P05177);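 also: PubChem cytochrome P450 panel assay, CYP1A2 panel member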
T2 sequence (P05177 whole entry): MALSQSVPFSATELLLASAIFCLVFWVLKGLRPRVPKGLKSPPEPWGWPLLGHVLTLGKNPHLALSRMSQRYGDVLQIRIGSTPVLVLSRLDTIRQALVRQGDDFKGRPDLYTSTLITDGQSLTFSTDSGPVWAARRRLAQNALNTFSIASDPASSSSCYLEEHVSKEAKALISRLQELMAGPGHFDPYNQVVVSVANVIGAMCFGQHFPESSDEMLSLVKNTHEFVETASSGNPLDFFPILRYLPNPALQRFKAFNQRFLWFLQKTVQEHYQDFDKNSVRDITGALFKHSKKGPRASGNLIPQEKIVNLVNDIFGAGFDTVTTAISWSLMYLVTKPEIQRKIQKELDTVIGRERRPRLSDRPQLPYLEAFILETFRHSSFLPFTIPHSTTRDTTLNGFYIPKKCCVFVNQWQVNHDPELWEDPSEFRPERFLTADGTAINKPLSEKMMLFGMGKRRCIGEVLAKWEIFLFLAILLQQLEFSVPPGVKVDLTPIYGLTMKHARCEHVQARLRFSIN

[31] = cytotoxicity toward HCT116 cells – cell-based, CellTiter-Glo luminescence, IC50, dose response (AID 1117332); format: functional; conditions: HCT-116
[32] = glucagon-like peptide-1 release potency in STC-1, concentration-response, half-maximal inhibitory concentration in the STC-1 line (AID 1117345); format: functional, cell-based
[33] = cytotoxicity toward HT-29 cells – cell-based, CellTiter-Glo luminescence, IC50, dose response (AID 1117330); format: functional
[34] = rise of 4N DNA cells, HeLa – IC50, dose response (AID 1117351); format: functional, cell-based
[35] = Reduced DLD-1 viability, concentration-response, CellTiter-Glo luminescence (AID 1117352); format: functional

Cytochrome P450 2C9, sequence (P11712 whole entry): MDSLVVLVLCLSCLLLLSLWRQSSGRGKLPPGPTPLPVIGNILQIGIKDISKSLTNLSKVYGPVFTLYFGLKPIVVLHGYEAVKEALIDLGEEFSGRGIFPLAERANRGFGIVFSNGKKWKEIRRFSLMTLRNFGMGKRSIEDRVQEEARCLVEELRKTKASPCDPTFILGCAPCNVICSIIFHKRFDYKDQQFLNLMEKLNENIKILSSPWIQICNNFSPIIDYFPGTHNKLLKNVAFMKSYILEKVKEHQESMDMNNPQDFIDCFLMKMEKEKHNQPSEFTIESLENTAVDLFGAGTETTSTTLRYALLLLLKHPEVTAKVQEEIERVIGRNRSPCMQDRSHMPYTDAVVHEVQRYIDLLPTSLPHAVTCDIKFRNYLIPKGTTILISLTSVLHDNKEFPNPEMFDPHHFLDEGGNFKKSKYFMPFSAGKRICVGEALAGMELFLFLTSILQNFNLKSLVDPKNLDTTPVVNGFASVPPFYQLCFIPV
Induced myeloid leukemia cell differentiation protein Mcl-1, sequence (Q07820 whole entry): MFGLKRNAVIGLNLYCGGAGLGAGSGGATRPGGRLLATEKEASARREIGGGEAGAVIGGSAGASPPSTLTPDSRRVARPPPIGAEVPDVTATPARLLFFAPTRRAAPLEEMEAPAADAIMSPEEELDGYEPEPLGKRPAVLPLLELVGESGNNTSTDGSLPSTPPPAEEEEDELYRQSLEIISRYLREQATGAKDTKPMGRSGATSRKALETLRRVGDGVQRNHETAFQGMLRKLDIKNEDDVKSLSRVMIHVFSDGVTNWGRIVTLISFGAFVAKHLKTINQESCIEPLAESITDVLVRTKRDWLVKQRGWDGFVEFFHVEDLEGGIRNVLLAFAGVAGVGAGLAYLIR
Paired box protein Pax-8, sequence (Q06710 whole entry): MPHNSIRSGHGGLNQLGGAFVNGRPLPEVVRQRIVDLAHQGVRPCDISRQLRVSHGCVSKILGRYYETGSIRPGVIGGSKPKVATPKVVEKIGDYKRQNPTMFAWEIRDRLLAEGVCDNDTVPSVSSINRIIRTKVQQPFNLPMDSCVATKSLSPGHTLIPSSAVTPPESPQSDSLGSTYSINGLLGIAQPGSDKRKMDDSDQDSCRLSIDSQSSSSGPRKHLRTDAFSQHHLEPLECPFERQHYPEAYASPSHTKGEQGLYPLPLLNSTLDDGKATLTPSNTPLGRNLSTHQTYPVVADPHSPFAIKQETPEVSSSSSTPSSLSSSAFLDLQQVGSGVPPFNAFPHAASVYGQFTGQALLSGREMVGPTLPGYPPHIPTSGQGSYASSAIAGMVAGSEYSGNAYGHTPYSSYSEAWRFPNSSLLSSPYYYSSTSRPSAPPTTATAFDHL
Genome polyprotein, sequence (P29990 2492-3391 limits assumed): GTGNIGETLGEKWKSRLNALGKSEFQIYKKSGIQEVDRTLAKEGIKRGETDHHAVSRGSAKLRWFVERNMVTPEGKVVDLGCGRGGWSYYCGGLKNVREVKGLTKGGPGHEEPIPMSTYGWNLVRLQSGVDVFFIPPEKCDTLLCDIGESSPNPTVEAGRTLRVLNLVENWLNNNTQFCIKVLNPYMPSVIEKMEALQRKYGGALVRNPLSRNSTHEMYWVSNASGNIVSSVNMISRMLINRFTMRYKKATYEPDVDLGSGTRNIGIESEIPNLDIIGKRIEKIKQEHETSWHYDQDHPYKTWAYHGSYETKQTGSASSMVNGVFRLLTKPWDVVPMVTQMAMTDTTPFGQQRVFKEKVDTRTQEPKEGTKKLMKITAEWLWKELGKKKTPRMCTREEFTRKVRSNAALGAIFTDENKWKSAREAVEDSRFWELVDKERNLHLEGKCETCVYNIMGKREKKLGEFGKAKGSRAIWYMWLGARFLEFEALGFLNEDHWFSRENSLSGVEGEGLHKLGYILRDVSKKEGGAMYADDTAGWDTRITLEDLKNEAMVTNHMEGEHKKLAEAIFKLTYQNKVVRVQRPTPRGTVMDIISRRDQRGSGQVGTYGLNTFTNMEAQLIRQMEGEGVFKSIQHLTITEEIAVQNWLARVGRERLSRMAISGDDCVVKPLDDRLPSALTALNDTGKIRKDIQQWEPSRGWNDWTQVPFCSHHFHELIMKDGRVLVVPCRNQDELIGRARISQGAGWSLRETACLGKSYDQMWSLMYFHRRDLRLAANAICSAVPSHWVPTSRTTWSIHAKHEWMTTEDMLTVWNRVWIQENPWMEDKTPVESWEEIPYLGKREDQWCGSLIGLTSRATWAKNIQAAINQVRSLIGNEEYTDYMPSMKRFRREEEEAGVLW
Sphingosine 1-phosphate receptor 2, sequence (O95136 whole entry): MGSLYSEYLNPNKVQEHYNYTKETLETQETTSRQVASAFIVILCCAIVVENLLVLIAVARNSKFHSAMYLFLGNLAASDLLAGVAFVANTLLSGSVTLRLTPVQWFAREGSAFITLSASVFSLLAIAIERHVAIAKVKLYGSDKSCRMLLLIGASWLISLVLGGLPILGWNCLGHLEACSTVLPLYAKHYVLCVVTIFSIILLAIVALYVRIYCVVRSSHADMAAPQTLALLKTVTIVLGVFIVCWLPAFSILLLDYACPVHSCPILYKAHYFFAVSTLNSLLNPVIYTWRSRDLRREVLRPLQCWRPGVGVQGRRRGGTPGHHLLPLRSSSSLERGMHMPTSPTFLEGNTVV
Eukaryotic translation initiation factor 4E, sequence (P63073 whole entry): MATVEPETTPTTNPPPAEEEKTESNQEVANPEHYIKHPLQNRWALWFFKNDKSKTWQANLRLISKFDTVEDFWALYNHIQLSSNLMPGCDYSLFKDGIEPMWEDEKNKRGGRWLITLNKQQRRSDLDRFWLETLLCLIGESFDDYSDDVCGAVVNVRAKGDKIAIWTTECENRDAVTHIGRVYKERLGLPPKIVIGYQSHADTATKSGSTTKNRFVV

SMILES: COc1ccc(C2CC(c3cccs3)=NN2C(=O)CSc2nnc(N)s2)cc1OC (stereo unspecified)
IC50 [1]: > 83.3 µM (inactive)
IC50 [2]: > 109 µM (inactive)

SMILES: COc1ccccc1CN1C[C@@H](C)[C@H](OC)CN(C)C(=O)c2ccc(NC(=O)Nc3ccccc3OC)cc2OC[C@H]1C
AC50 [3]: 0.163 µM (active)
AC50 [4]: 2.1 µM (active)
AC50 [5]: 0.116 µM (active)
AC50 [6]: 0.0185 µM (active)
AC50 [7]: 0.189 µM (active)
AC50 [8]: < 0.3 µM (active)
AC50 [9]: > 100 µM (inactive)

EC50 [10]: > 50 µM (not active)
SMILES: COCCNC(=O)CN1CCN(C(c2ccccc2)c2ccccc2)CC1

SMILES: C[C@H](O)C#Cc1ccc2c(c1)O[C@@H](CN(C)Cc1ccc(-c3ccccc3)cc1)[C@@H](C)CN([C@@H](C)CO)S2(=O)=O
AC50 [11]: < 0.195 µM (active)
AC50 [12]: 11.2 µM (active)
AC50 [13]: > 70 µM (inactive)
AC50 [14]: 14.7 µM (active)
AC50 [15]: 22.6 µM (active)
AC50 [16]: > 60 µM (inactive)
AC50 (Paired box protein Pax-8): 11.5 µM (active)

SMILES: CCOc1c(Cl)cc(CNc2ccc(N3CCCC3)cc2)cc1OC
IC50 (Genome polyprotein): 93.2 µM (active)
EC50 [17]: 4.98 µM (active)
CC50 (Vero): 27.8 µM (active)
CC50 [18]: 100 µM (active)
IC50 [19]: 37.7 µM (active)
IC50 [20]: 2.69 µM (active)
IC50 [21]: 3.93 µM (active)
EC50 [22]: > 60 µM (not active)

SMILES: CC(=O)c1ccc(N2CCN(C(=O)c3ccccc3F)CC2)cc1
AC50 [23]: > 52 µM (inactive)

SMILES: Cc1cc2c(C(C)C)c(O)c(O)c(C=O)c2c(O)c1-c1c(C)cc2c(C(C)C)c(O)c(O)c(C=O)c2c1O [GOSSYPOL]
IC50 [24]: 23.4 µM (inactive)
IC50 [25]: > 64 µM (inactive)
IC50 [26]: 0.354 µM (active)
AC50 (Cytochrome P450 2C9): 31.6 µM (inconclusive) and 15.8 µM (inconclusive)
IC50 [27]: 0.956 µM (active)
IC50 [28]: > 10 µM (inactive)
IC50 [29]: 0.916 µM (active)
IC50 [30]: 1.38 µM (active)
AC50 (Cytochrome P450 1A2): 15.8 µM (inconclusive) and 39.8 µM (inconclusive)
IC50 [31]: 0.784 µM (active)
IC50 [20]: 1.52 µM (active)
IC50 [32]: > 40 µM (inactive)
IC50 [33]: 1.42 µM (active)
IC50 [34]: > 10 µM (inactive)
IC50 [35]: 0.834 µM (active)

Source: ChEMBL document CHEMBL1201862, “PubChem BioAssay data set” (2004)
